{"source": "patent US9237747B2", "about": "“Herbicidal compositions comprising 4-amino-3-chloro-5-fluoro-6-(4-chloro-2-fluoro-3-methoxyphenyl) pyridine-2-carboxylic acid or a derivative thereof and insecticides” (priority 2013, dated 2016)", "key": {"SCPMA": {"tested_on": "SCPMA", "test": "In-water applied weed control, transplanted paddy rice (greenhouse)", "type": "in vivo, Schoenoplectus maritimus", "method": "Weed seeds or nutlets of the desired test plant species were planted in puddled soil (mud) prepared by mixing a shredded, non-sterilized mineral soil (50.5 percent silt, 25.5 percent clay, and 24 percent sand, with a pH of about 7.6 and an organic matter content of about 2.9 percent) and water at a 1:1 volumetric ratio. The prepared mud was dispensed in 365 mL aliquots into 16-ounce (oz.) non-perforated plastic pots with a surface area of 86.59 square centimeters (cm^2) leaving a headspace of 3 centimeters (cm) in each pot. Rice seeds were planted in Sun Gro MetroMix® 306 planting mixture, which typically has a pH of 6.0 to 6.8 and an organic matter content of about 30 percent, in plastic plug trays. Seedlings at the second or third leaf stage of growth were transplanted into 860 mL of mud contained in 32-oz. non-perforated plastic pots with a surface area of 86.59 cm^2 4 days prior to herbicide application. The paddy was created by filling the headspace of the pots with 2.5 to 3 cm of water. When required to ensure good germination and healthy plants, a fungicide treatment and/or other chemical or physical treatment was applied. The plants were grown for 4-22 days in a greenhouse with an approximate 14 h photoperiod which was maintained at about 29° C. during the day and about 26° C. during the night. Nutrients were added as Osmocote® (17:6:10, N:P:K+minor nutrients) at 2 grams (g) per 16-oz. pot and 4 g per 32-oz. pot. Water was added on a regular basis to maintain the paddy flood, and supplemental lighting was provided with overhead metal halide 1000-Watt lamps as necessary. The plants were employed for testing when they reached the first through fourth true leaf stage.\nTreatments consisted of the acid or esters of 4-amino-3-chloro-5-fluoro-6-(4-chloro-2-fluoro-3-methoxy-phenyl)pyridine-2-carboxylic acid (compound A) each formulated as an SC (suspension concentrate) and various herbicidal components alone and in combination. Forms of compound A were applied on an acid equivalent basis.\nOther […] components were applied on an active ingredient basis and consisted of etofenprox (technical grade material) and sulfoxaflor formulated as Sulfoxaflor WG.\nTreatment requirements for each compound or herbicidal component were calculated based upon the rates being tested, the concentration of active ingredient or acid equivalent in the formulation, an application volume of 2 mL per component per pot, and an application area of 86.59 cm^2 per pot.\nFor formulated compounds, a measured amount was placed in an individual 100 or 200 mL glass vial and was dissolved in a volume of 1.25% (v/v) AgriDex® crop oil concentrate to obtain application solutions.\nFor technical grade compounds, a weighed amount was placed in an individual 100 to 200 mL glass vial and was dissolved in a volume of acetone to obtain concentrated stock solutions.\nApplications were made by injecting with a pipetter appropriate amounts of the application solutions, individually and sequentially, into the aqueous layer of the paddy. Control plants were treated in the same manner with the solvent blank. Applications were made so that all treated plant material received the same concentrations of acetone and crop oil concentrate.\n(§1) The treated plants and control plants were placed in a greenhouse as described above and water was added as needed to maintain a paddy flood. After approximately 3 weeks the condition of the test plants as compared with that of the untreated plants was determined visually and scored on a scale of 0 to 100 percent where 0 corresponds to no injury or growth inhibition and 100 corresponds to complete kill.\nColby's equation was used to determine the herbicidal effects expected from the mixtures (Colby, S. R. Calculation of the synergistic and antagonistic response of herbicide combinations. Weeds 1967, 15, 20-22.). […]"}, "BRAPP": {"tested_on": "BRAPP", "test": "Postemergence foliar-applied weed control, direct-seeded rice (greenhouse)", "type": "in vivo, Brachiaria platyphylla", "excerpt": "(§2) Seeds or nutlets of the desired test plant species were planted in a soil matrix prepared by mixing a loam or sandy loam soil (e.g., 28.6 percent silt, 18.8 percent clay, and 52.6 percent sand, with a pH of about 5.8 and an organic matter content of about 1.8 percent) and calcareous grit in an 80 to 20 ratio. The soil matrix was contained in plastic pots with a volume of 1 quart and a surface area of 83.6 square centimeters (cm^2). When required to ensure good germination and healthy plants, a fungicide treatment and/or other chemical or physical treatment was applied. The plants were grown for 8-22 days in a greenhouse with an approximate 14 hour (h) photoperiod which was maintained at about 29° C. during the day and 26° C. during the night. Nutrients (Peters Excel® 15-5-15 5-Ca 2-Mg and iron chelate) were applied in the irrigation solution as needed and water was added on a regular basis. Supplemental lighting was provided with overhead metal halide 1000-Watt lamps as necessary. The plants were employed for testing when they reached the first through fourth true leaf stage.\n(§3) Treatments consisted of the acid or esters of 4-amino-3-chloro-6-(4-chloro-2-fluoro-3-methoxyphenyl)-5-fluoropyridine-2-carboxylic acid (Compound A), each formulated as an SC (suspension concentrate), and various insecticidal components alone and in combination. Forms of compound A were applied on an acid equivalent basis.\n(§4) Treatment requirements were calculated based upon the rates being tested, the concentration of active ingredient or acid equivalent in the formulation, and a 12 milliliter (mL) application volume at a rate of 187 liters per hectare (L/ha).\n(§5) For treatments comprised of formulated compounds, measured amounts of compounds were placed individually in 25 mL glass vials and diluted in a volume of 1.25% volume per volume (v/v) Agri-Dex® crop oil concentrate to obtain 12× stock solutions. […] Application solutions were prepared by adding an appropriate amount of each stock solution (e.g., 1 mL) and diluted to the appropriate final concentrations with the addition of […] of an aqueous mixture of 1.25% (v/v) crop oil concentrate so that the final spray solutions contained 1.25+/−0.05% (v/v) crop oil concentrate.\n(§6) As required, additional water and/or 97:3 v/v acetone/DMSO was added to individual application solutions so that the final acetone and DMSO concentrations of the application solutions being compared were 8.1% and 0.25%, respectively.\n(§7) All stock solutions and applications solutions were visually inspected for compound compatibility prior to application. Spray solutions were applied to the plant material with an overhead Mandel track sprayer equipped with 8002E nozzles calibrated to deliver 187 L/ha over an application area of 0.503 square meters (m^2) at a spray height of 18 to 20 inches (46 to 50 cm) above average plant canopy height. Control plants were sprayed in the same manner with the solvent blank.\nas §1, with “watered by sub-irrigation” for “water was added as needed”, “prevent wash-off of the test compounds.” for “maintain a paddy flood.”, “weeks,” for “weeks”, “to” for “with”\n(§8) Colby's equation was used to determine the herbicidal effects expected from the mixtures (Colby, S. R. Calculation of the synergistic and antagonistic response of herbicide combinations. Weeds 1967, 15, 20-22.).\n(§9) The following equation was used to calculate the expected activity of mixtures containing two active ingredients, A and B: Expected=A+B−(A×B/100)"}, "CYPIR": {"tested_on": "CYPIR", "type": "in vivo, Cyperus iria", "excerpt": "as §2, §3, §4, §5, §6, §7\nas §1, with “watered by sub-irrigation” for “water was added as needed”, “prevent wash-off of the test compounds.” for “maintain a paddy flood.”, “weeks,” for “weeks”, “to” for “with”\nas §8, §9"}}, "note": "Like-named read-outs stand apart in the source and are kept apart here.", "data": [{"smiles": "COc1c(Cl)ccc(-c2nc(C(=O)OCc3ccccc3)c(Cl)c(N)c2F)c1F", "note": "[Compound A Benzyl Ester]", "values": [{"measurement": "Visual Weed Control (%) - 21 DAA SCPMA Obs", "setting": "SCPMA; 21 DAA, 4.38 g ae/ha alone", "value": 0, "unit": "%"}, {"measurement": "Visual Weed Control (%) - 21 DAA SCPMA Obs", "setting": "SCPMA; 21 DAA, 8.75 g ae/ha alone", "value": 0, "unit": "%"}, {"measurement": "Visual Weed Control (%) - 21 DAA SCPMA Obs", "setting": "SCPMA; 21 DAA, 17.5 g ae/ha alone", "value": 0, "unit": "%"}, {"measurement": "Visual Weed Control (%) - 20 DAA BRAPP Obs", "setting": "BRAPP; 4.38 g ae/ha alone", "value": 75, "unit": "%"}, {"measurement": "Visual Weed Control (%) - 20 DAA BRAPP Obs", "setting": "BRAPP; 8 g ae/ha alone", "value": 55, "unit": "%"}, {"measurement": "Visual Weed Control (%) - 21 DAA BRAPP Obs", "setting": "BRAPP; 8 g ae/ha alone", "value": 70, "unit": "%"}, {"measurement": "Visual Weed Control (%) - 20 DAA BRAPP Obs", "setting": "BRAPP; 8.75 g ae/ha alone", "value": 75, "unit": "%"}, {"measurement": "Visual Weed Control (%) - 20 DAA BRAPP Obs", "setting": "BRAPP; 17.5 g ae/ha alone", "value": 95, "unit": "%"}, {"measurement": "Visual Weed Control (%) - 22 DAA CYPIR Obs", "setting": "CYPIR; 4.38 g ae/ha alone", "value": 70, "unit": "%"}, {"measurement": "Visual Weed Control (%) - 21 DAA CYPIR Obs", "setting": "CYPIR; 8 g ae/ha alone", "value": 50, "unit": "%"}, {"measurement": "Visual Weed Control (%) - 21 DAA CYPIR Obs", "setting": "CYPIR; 21 DAA, 8 g ae/ha alone", "value": 50, "unit": "%"}]}, {"smiles": "CC(c1ccc(C(F)(F)F)nc1)S(C)(=O)=NC#N", "note": "(stereo not shown) [Sulfoxaflor, N-[methyloxido[1-[6-(trifluoromethyl)-3-pyridinyl]ethyl]-λ^4-sulfanylidene]cyanamide]", "values": [{"measurement": "Visual Weed Control (%) - 21 DAA SCPMA Obs", "setting": "SCPMA; 21 DAA, 50 g ai/ha alone", "value": 0, "unit": "%"}, {"measurement": "Visual Weed Control (%) - 21 DAA SCPMA Obs", "setting": "SCPMA; 50 g ai/ha alone", "value": 0, "unit": "%"}, {"measurement": "Visual Weed Control (%) - 21 DAA CYPIR Obs", "setting": "CYPIR; 21 DAA, 75 g ai/ha alone", "value": 0, "unit": "%"}, {"measurement": "Visual Weed Control (%) - 21 DAA CYPIR Obs", "setting": "CYPIR; 21 DAA, 150 g ai/ha alone", "value": 0, "unit": "%"}]}, {"smiles": "COc1c(Cl)ccc(-c2nc(C(=O)O)c(Cl)c(N)c2F)c1F", "note": "[Compound A Acid, 4-amino-3-chloro-6-(4-chloro-2-fluoro-3-methoxyphenyl)-5-fluoropyridine-2-carboxylic acid]", "values": [{"measurement": "Visual Weed Control (%) - 21 DAA SCPMA Obs", "setting": "SCPMA; 4.38 g ae/ha alone", "value": 0, "unit": "%"}, {"measurement": "Visual Weed Control (%) - 21 DAA SCPMA Obs", "setting": "SCPMA; 8.75 g ae/ha alone", "value": 0, "unit": "%"}, {"measurement": "Visual Weed Control (%) - 20 DAA BRAPP Obs", "setting": "BRAPP; 4.38 g ae/ha alone", "value": 70, "unit": "%"}, {"measurement": "Visual Weed Control (%) - 20 DAA CYPIR Obs", "setting": "CYPIR; 4.38 g ae/ha alone", "value": 30, "unit": "%"}]}]}
